Experimental data: patent US11931321B2, “Compositions comprising a dendrimer-resveratrol complex and methods for making and using the same” (Concordia University, priority 2013, dated 2024)

Legend:
[1] = Stability studies: HPLC of resveratrol remaining in aqueous solution; assay type: physicochemical
Procedure: The sample can then be analyzed via HPLC to determine the amount of resveratrol in the composition. This amount of resveratrol can be compared to the initially determined amount. This comparison amount can be used to determine the percent degradation.
Stability was determined by HPLC analysis of a 1% PAMAM-G4 amine dendrimer-resveratrol complex at 21° C. (ambient temperature), 37° C., and 4° C. […]

[2] = background statement; cited from earlier work
[3] = Dissolution studies in simulated gastric and intestinal fluids; assay type: physicochemical
Procedure: The formulation was split into 2 equal aliquots and lyophilized. Simulated gastric and intestinal fluids were prepared, with the simulated gastric fluid consisting of HCl, NaCl, Pepsin, and water while the simulated intestinal fluid consisted of NaOH, KH2PO4, and water. […] This experiment was protected from light. At various time points, 0.5 mL aliquots of fluid were removed from the chambers and analyzed via HPLC. The volume removed was replaced with fresh simulated fluid.

[4] = background statement; cited from earlier work; remark: listed apart in the source

- drug remained intact ([1]; 4° C., day 29, aqueous solution): no drug remained
- resveratrol remained intact ([1]; ambient temperature (21° C.), day 4, aqueous solution): completely degraded
- time to dissolution (still dissolving at final time point) ([3]; simulated gastric fluid): > 4.5 h
- time to dissolution (still dissolving at final time point) ([3]; simulated intestinal fluid): > 4.5 h
SMILES: Oc1ccc(C=Cc2cc(O)cc(O)c2)cc1 [Resveratrol, 3,4′,5-trihydroxystilbene]
- aqueous solubility [2]: 15 to 40 ng/mL
- half-life [4]: 8 to 14 min
- metabolic stability [4]: poor
- oral bioavailability [4]: low
